{"source": "patent US10138222B2", "about": "“Substituted benzamides as RIPK2 inhibitors” (Boehringer Ingelheim International GmbH, priority 2016, dated 2018)", "target": "RIPK2 (Homo sapiens (Human), UniProt O43353)", "sequence (O43353 whole entry)": "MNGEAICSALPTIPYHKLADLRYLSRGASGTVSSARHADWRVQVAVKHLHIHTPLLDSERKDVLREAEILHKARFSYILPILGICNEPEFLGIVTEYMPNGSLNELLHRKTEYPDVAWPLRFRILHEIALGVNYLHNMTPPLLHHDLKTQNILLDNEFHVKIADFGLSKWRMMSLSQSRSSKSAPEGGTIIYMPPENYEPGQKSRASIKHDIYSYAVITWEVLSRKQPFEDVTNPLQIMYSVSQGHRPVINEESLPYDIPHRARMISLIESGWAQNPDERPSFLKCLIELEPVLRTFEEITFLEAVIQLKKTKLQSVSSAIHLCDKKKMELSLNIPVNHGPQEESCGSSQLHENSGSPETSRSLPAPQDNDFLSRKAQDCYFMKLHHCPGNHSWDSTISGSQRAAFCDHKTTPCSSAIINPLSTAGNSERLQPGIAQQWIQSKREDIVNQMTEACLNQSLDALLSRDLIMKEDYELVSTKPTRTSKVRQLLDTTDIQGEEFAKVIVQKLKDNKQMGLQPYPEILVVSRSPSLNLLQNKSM", "assay": "RIPK2 inhibition, ADP-Glo Kinase Assay", "type": "biochemical", "details": "8His-RIPK2 FL enzyme 8 nM, ATP 5 μM, 15 minutes pre-incubation, 60 minutes at 37° C., luminescence", "experimental": "RIPK2 inhibition for compounds in Table 1 are shown in Table 3 and measured using the following method:\nMaterials: White, 384-well optiplates (cat.no. 6007290) were purchased from PerkinElmer. The V9103X ADP-Glo Kinase Assay Custom (including ultra-pure ATP) was purchased from Promega. 8His-RIPK2 FL was prepared in-house. All other materials were of highest grade commercially available.\nMethod: In a 384-well plate, test compound diluted in assay buffer (1% DMSO final) is mixed with 8His-RIPK2 FL enzyme (final concentration of 8 nM). After 15 minutes of pre-incubation at RT, ATP dissolved in assay buffer is added (final concentration 5 μM). The mixture is incubated for 60 minutes at 37° C. in a humidified incubator. Then, ADP Glo Reagent is added, followed by a 40 minute incubation at rt. Finally, Kinase Detection Reagent is added and the entire mixture is incubated for 40 min at RT. The luminescence signal is measured with an Envision reader to determine the amount of ADP produced. Assay buffer: 25 mM HEPES (4-(2-hydroxyethyl)-1-piperazinethanesulfonic acid), 0.1% BSA (bovine serum albumin), 10 mM MgCl2, 5 mM MnCl2, 50 mM KCl, 0.01% CHAPS (3-[(3-cholamidopropyl)dimethylammonio]-1-propanesulfonate), 10 μM Na3VO4, 1 mM DTT (dithiothreitol), pH 7.5 All plates contain wells with vehicle controls instead of compound (1% DMSO) as reference for the high signal (100% CTL (100% of control), high signal), and wells without enzyme as reference for low signal (0% CTL, low signal). The luminescent signal generated is proportional to the ADP produced and is correlated with enzyme activity. The analysis of the data is performed by the calculation of the percentage of ADP production in the presence of the test compound and RIPK2 as compared to the ADP production in the presence of RIPK2 plus 50 μM Gefitinib. (RLU (relative luminescence units) (sample)−RLU(low control))*100/(RLU(high value)−RLU(low control)) [RLU=relative luminescence units]."}
{"smiles": "Cc1cc(F)c(C(=O)NC2CC2)cc1-c1cnn(-c2cncc(N[C@H]3CCN(C)CC3(F)F)c2)c1", "note": "(single isomer, unassigned) [Example 175]", "values": [{"measurement": "IC50", "result": 1.7, "unit": "nM"}]}
{"smiles": "Cc1cc(F)c(C(=O)NC2CC2)cc1-c1cnn(-c2cncc(N[C@@H]3CCN(C)CC3(F)F)c2)c1", "note": "(single isomer, unassigned) [Example 176]", "values": [{"measurement": "IC50", "result": 1.5, "unit": "nM"}]}
{"smiles": "COc1cncc(-n2cc(-c3cc(C(=O)NC4CC4)c(F)cc3C)cn2)c1", "note": "[Example 25, N-cyclopropyl-2-fluoro-5-[1-(5-methoxypyridin-3-yl)-1H-pyrazol-4-yl]-4-methylbenzamide]", "values": [{"measurement": "IC50", "result": 3.7, "unit": "nM"}]}
{"smiles": "COc1cncc(-n2cc(-c3cc(C(=O)NC4CC4)c(F)cc3Cl)cn2)c1", "note": "[Example 26, 4-chloro-N-cyclopropyl-2-fluoro-5-[1-(5-methoxypyridin-3-yl)-1H-pyrazol-4-yl]benzamide]", "values": [{"measurement": "IC50", "result": 8.9, "unit": "nM"}]}
{"smiles": "COc1cncc(-n2cc(-c3cc(C(=O)NC4CC4)ccc3Cl)cn2)c1", "note": "[Example 27, 4-chloro-N-cyclopropyl-3-[1-(5-methoxypyridin-3-yl)-1H-pyrazol-4-yl]benzamide]", "values": [{"measurement": "IC50", "result": 22, "unit": "nM"}]}
{"smiles": "COc1cncc(-n2cc(-c3cc(C(=O)NC4CC4)ccc3C)cn2)c1", "note": "[Example 28, N-cyclopropyl-3-[1-(5-methoxy-pyridin-3-yl)-1H-pyrazol-4-yl]-4-methylbenzamide]", "values": [{"measurement": "IC50", "result": 15, "unit": "nM"}]}
{"smiles": "O=C(NC1CC1)c1ccc(Cl)c(-c2cnn(-c3cccnc3)c2)c1", "note": "[Example 31, 4-chloro-N-cyclopropyl-3-[1-(pyridin-3-yl)-1H-pyrazol-4-yl]benzamide]", "values": [{"measurement": "IC50", "result": 94, "unit": "nM"}]}
{"smiles": "O=C(NC1CC1)c1cc(-c2cnn(-c3cccnc3)c2)c(Cl)cc1F", "note": "[Example 32, 4-chloro-N-cyclopropyl-2-fluoro-5-[1-(pyridin-3-yl)-1H-pyrazol-4-yl] benzamide]", "values": [{"measurement": "IC50", "result": 14, "unit": "nM"}]}
{"smiles": "COc1cncc(-n2cnc(-c3cc(C(=O)NC4CC4)c(F)cc3Cl)c2)c1", "note": "[Example 33, 4-chloro-N-cyclopropyl-2-fluoro-5-[1-(5-methoxypyridin-3-yl)-1H-imidazol-4-yl]benzamide]", "values": [{"measurement": "IC50", "result": 7.4, "unit": "nM"}]}
{"smiles": "Cc1ccc(C(=O)NC2CC2)cc1-c1cnn(-c2cccnc2)c1", "note": "[Example 34, N-cyclopropyl-4-methyl-3-[1-(pyridin-3-yl)-1H-pyrazol-4-yl] benzamide]", "values": [{"measurement": "IC50", "result": 38, "unit": "nM"}]}
{"smiles": "Cc1ccc(C(=O)NC2CC2)cc1-c1cn(-c2cccnc2)cn1", "note": "[Example 35, N-cyclopropyl-4-methyl-3-[1-(pyridin-3-yl)-1H-imidazol-4-yl] benzamide]", "values": [{"measurement": "IC50", "result": 39, "unit": "nM"}]}
{"smiles": "CCOc1cncc(-n2cc(-c3cc(C(=O)NC4CC4)ccc3C)cn2)c1", "note": "[Example 36, N-cyclopropyl-3-[1-(5-ethoxypyridin-3-yl)-1H-pyrazol-4-yl]-4-methyl-benzamide]", "values": [{"measurement": "IC50", "result": 8.8, "unit": "nM"}]}
{"smiles": "CNCc1cncc(-n2cc(-c3cc(C(=O)NC4CC4)ccc3C)cn2)c1", "note": "[Example 39, N-cyclopropyl-4-methyl-3-(1-{5-[(methylamino)methyl]pyridin-3-yl}-1H-pyrazol-4-yl)benzamide]", "values": [{"measurement": "IC50", "result": 180, "unit": "nM"}]}
{"smiles": "Cc1ccc(C(=O)NC2CC2)cc1-c1cnn(-c2cncc(CO)c2)c1", "note": "[Example 43, N-cyclopropyl-3-{1-[5-(hydroxymethyl)pyridin-3-yl]-1H-pyrazol-4-yl}-4-methylbenzamide]", "values": [{"measurement": "IC50", "result": 24, "unit": "nM"}]}
{"smiles": "Cc1ccc(C(=O)NC2CC2)cc1-c1cnn(-c2cncc(N(C)C)c2)c1", "note": "[Example 44, N-cyclopropyl-3-{1-[5-(dimethylamino)pyridin-3-yl]-1H-pyrazol-4-yl}-4-methylbenzamide]", "values": [{"measurement": "IC50", "result": 6.4, "unit": "nM"}]}
{"smiles": "Cc1ccc(C(=O)NC2CC2)cc1-c1cnn(-c2cncc(C3CC3)c2)c1", "note": "[Example 45, N-cyclopropyl-3-[1-(5-cyclopropyl-pyridin-3-yl)-1H-pyrazol-4-yl]-4-methylbenzamide]", "values": [{"measurement": "IC50", "result": 3.6, "unit": "nM"}]}
{"smiles": "Cc1ccc(C(=O)NC2CC2)cc1-c1cnn(-c2cncc(S(C)(=O)=O)c2)c1", "note": "[Example 46, N-cyclopropyl-3-[1-(5-methanesulfonylpyridin-3-yl)-1H-pyrazol-4-yl]-4-methylbenzamide]", "values": [{"measurement": "IC50", "result": 190, "unit": "nM"}]}
{"smiles": "Cc1ccc(C(=O)NC2CC2)cc1-c1cnn(-c2cncc(C(F)(F)F)c2)c1", "note": "[Example 47, N-cyclopropyl-4-methyl-3-{1-[5-(trifluoromethyl)pyridin-3-yl]-1H-pyrazol-4-yl}benzamide]", "values": [{"measurement": "IC50", "result": 57, "unit": "nM"}]}
{"smiles": "Cc1ccc(C(=O)NC2CC2)cc1-c1cnn(-c2cncc(C(=O)O)c2)c1", "note": "[Example 48, 5-{4-[5-(cyclopropylcarbamoyl)-2-methylphenyl]-1H-pyrazol-1-yl} pyridine-3-carboxylic acid]", "values": [{"measurement": "IC50", "result": 33, "unit": "nM"}]}
{"smiles": "Cc1ccc(C(=O)NC2CC2)cc1-c1cnn(-c2cncc(C(=O)N(C)C)c2)c1", "note": "[Example 49, 5-{4-[5-(cyclopropylcarbamoyl)-2-methylphenyl]-1H-pyrazol-1-yl}-N,N-dimethylpyridine-3-carboxamide]", "values": [{"measurement": "IC50", "result": 390, "unit": "nM"}]}
{"smiles": "CC(=O)NC(C)(C)c1cncc(-n2cc(-c3cc(C(=O)NC4CC4)ccc3C)cn2)c1", "note": "[Example 50, N-cyclopropyl-3-{1-[5-(2-acetamidopropan-2-yl)pyridin-3-yl]-1H-pyrazol-4-yl}-4-methylbenzamide]", "values": [{"measurement": "IC50", "result": 570, "unit": "nM"}]}
{"smiles": "Cc1ccc(C(=O)NC2CC2)cc1-c1cnn(-c2cncc(CC(=O)O)c2)c1", "note": "[Example 51, 2-(5-{4-[5-(cyclopropylcarbamoyl)-2-methylphenyl]-1H-pyrazol-1-yl}pyridin-3-yl)acetic acid]", "values": [{"measurement": "IC50", "result": 240, "unit": "nM"}]}
{"smiles": "Cc1ccc(C(=O)NC2CC2)cc1-c1cnn(-c2cncc(CC#N)c2)c1", "note": "[Example 52, 3-{1-[5-(cyanomethyl)pyridin-3-yl]-1H-pyrazol-4-yl}-N-cyclopropyl-4-methylbenzamide]", "values": [{"measurement": "IC50", "result": 56, "unit": "nM"}]}
{"smiles": "COc1cncc(-n2cnc(-c3cc(C(=O)NC4CC4)ccc3C)c2)c1", "note": "[Example 53, N-cyclopropyl-3-[1-(5-methoxypyridin-3-yl)-1H-imidazol-4-yl]-4-methyl-benzamide]", "values": [{"measurement": "IC50", "result": 7.6, "unit": "nM"}]}
{"smiles": "COc1cncc(-n2cnc(-c3cc(C(=O)NC4CC4)ccc3Cl)c2)c1", "note": "[Example 54, 4-chloro-N-cyclopropyl-3-[1-(5-methoxypyridin-3-yl)-1H-imidazol-4-yl]benzamide]", "values": [{"measurement": "IC50", "result": 41, "unit": "nM"}]}
{"smiles": "Cc1ccc(C(=O)NC2CC2)cc1-c1cnn(-c2cncc(NCCOC(C)(C)C)c2)c1", "note": "[Example 55, 3-[1-(5-{[2-(tert-butoxy)ethyl]amino}pyridin-3-yl)-1H-pyrazol-4-yl]-N-cyclopropyl-4-methylbenzamide]", "values": [{"measurement": "IC50", "result": 9.7, "unit": "nM"}]}
{"smiles": "CCO[C@H]1COC[C@@H]1Nc1cncc(-n2cc(-c3cc(C(=O)NC4CC4)ccc3C)cn2)c1", "note": "[Example 56, N-cyclopropyl-3-[1-(5-{[(3S,4R)-4-ethoxyoxolan-3-yl]amino}pyridin-3-yl)-1H-pyrazol-4-yl]-4-methyl-benzamide]", "values": [{"measurement": "IC50", "result": 10, "unit": "nM"}]}
{"smiles": "Cc1ccc(C(=O)NC2CC2)cc1-c1cnn(-c2cncc(NCC3COCCO3)c2)c1", "note": "(stereo not drawn) [Example 57, N-cyclopropyl-3-(1-{5-[(1,4-dioxan-2-ylmethyl)amino]pyridin-3-yl}-1H-pyrazol-4-yl)-4-methylbenzamide]", "values": [{"measurement": "IC50", "result": 4.5, "unit": "nM"}]}
{"smiles": "Cc1ccc(C(=O)NC2CC2)cc1-c1cnn(-c2cncc(NCCN3CCOC3=O)c2)c1", "note": "[Example 58, N-cyclopropyl-4-methyl-3-[1-(5-{[2-(2-oxo-1,3-oxazolidin-3-yl)ethyl]amino}pyridin-3-yl)-1H-pyrazol-4-yl]benzamide]", "values": [{"measurement": "IC50", "result": 3.8, "unit": "nM"}]}
{"smiles": "Cc1ccc(C(=O)NC2CC2)cc1-c1cnn(-c2cncc(NCC3CCCO3)c2)c1", "note": "(stereo not drawn) [Example 59, N-cyclopropyl-4-methyl-3-(1-{5-[(oxolan-2-ylmethyl)amino]pyridin-3-yl}-1H-pyrazol-4-yl)benzamide]", "values": [{"measurement": "IC50", "result": 9.1, "unit": "nM"}]}
